According to US11584747B2, “Substituted pyridopyrimidinonyl compounds useful as T cell activators” (BRISTOL-MYERS SQUIBB COMPANY, priority 2019, dated 2023):
Where two headings read alike, the source gives them in different places.

What was measured:
human DGKζ = human DGKζ (Homo sapiens (Human), UniProt Q13574); experiment: DGKζ LIPGLO assay (extruded liposome substrate, ADP-Glo luminescence); format: biochemical
human DGKα = human DGKα (Homo sapiens (Human), UniProt P23743); experiment: DGKα ADPGLO assay (detergent/lipid micelle substrate); format: biochemical
human DGKα, sequence (P23743 whole entry, looked up, the tested form may be a part): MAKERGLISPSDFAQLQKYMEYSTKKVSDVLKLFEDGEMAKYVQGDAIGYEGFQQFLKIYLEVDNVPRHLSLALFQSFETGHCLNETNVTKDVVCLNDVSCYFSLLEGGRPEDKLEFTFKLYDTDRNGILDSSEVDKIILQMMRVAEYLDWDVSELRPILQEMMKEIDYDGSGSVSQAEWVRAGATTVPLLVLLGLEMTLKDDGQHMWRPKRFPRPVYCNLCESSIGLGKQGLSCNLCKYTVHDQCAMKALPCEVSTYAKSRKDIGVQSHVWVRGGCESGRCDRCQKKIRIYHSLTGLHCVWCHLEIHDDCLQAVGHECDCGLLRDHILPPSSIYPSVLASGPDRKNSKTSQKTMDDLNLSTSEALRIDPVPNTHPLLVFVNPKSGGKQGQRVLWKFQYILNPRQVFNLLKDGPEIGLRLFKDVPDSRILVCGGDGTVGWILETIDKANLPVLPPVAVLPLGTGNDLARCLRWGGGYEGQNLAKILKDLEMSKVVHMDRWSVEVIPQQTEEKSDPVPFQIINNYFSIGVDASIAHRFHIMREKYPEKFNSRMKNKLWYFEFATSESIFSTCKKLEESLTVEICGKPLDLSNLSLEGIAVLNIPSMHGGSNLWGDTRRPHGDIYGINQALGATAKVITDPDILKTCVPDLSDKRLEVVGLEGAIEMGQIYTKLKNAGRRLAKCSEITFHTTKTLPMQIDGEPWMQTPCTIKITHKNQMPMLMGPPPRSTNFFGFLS
Method: DGK Alpha ADPGLO (Truncated) IC50 (uM)
The detergent/lipid micelle was prepared by combining 15 g phosphatidylserine (Avanti 840035P) and 1 g diacylglycerol (8008110) and dissolving into 150 mL chloroform in a 2 L round bottom flask. Chloroform was removed under high vacuum by rotary evaporation. […] The lipid/detergent solution was split into 5 mL aliquots and stored at −80° C.

[1] = liposome (LIPGLO) assay, read-out: DGK zeta (liposome assay) IC50
[2] = ADPGLO assay, read-out: DGK alpha ADPGLO IC50
[3] = liposome assay, read-out: DGK zeta LIPGLO IC50
[4] = truncated DGK alpha, read-out: DGK alpha ADPGLO (Truncated) IC50

human DGKζ, sequence (Q13574 other isoform, or with tags, fused parts or gaps): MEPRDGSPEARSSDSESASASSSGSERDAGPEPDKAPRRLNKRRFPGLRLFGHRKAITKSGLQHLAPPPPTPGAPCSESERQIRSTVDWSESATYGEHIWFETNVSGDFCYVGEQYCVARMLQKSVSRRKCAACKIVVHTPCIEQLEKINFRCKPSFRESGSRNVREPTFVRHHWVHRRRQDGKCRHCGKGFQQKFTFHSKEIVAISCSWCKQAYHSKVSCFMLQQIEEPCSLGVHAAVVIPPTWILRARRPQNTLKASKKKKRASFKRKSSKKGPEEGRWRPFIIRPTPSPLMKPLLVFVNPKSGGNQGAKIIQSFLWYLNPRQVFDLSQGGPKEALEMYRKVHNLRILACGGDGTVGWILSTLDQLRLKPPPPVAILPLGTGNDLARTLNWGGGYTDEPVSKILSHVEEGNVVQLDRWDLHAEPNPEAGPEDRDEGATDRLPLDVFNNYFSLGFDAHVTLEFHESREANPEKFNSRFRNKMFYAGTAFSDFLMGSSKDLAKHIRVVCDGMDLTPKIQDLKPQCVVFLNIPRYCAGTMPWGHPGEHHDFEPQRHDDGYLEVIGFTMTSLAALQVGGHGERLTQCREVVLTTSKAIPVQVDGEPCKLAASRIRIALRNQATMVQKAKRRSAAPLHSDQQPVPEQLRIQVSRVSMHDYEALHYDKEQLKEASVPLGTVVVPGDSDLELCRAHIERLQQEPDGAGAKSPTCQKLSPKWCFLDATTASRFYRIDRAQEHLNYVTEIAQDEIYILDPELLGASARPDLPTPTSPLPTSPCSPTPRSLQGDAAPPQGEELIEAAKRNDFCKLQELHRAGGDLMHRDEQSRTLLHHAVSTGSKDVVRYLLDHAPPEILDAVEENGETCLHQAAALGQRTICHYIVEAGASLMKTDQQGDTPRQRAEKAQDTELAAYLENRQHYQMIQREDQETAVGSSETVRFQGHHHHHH

IC50 (human DGKζ; [1]) [nM] | IC50 (human DGKα; [2]) [nM] | IC50 (human DGKζ; [3]) [nM] | IC50 (human DGKα; [4]) [nM] | Compound
760 | 7 | – | – | CCC(c1ccc(Br)cc1)N1C[C@H](C)N(c2nc(=O)n(C)c3ccc(C#N)nc23)C[C@H]1CC (stereo partly drawn) [Example 322, 4-((2 S,5R)-4-(1-(4-bromophenyl)propyl)-5-ethyl-2-methylpiperazin-1-yl)-1-methyl-2-oxo-1,2-dihydropyrido[3,2-d]pyrimidine-6-carbonitrile]
– | – | 18 | 160 | CC[C@H]1CN(C(C)c2ccc(CN3CCC(F)(F)CC3)cc2)[C@H](CC)CN1c1nc(=O)n(C)c2ccc(C#N)nc12 (stereo partly drawn) [Example 277, 4-((2S,5R)-4-(1-(4-((4,4-difluoropiperidin-1-yl)methyl)phenyl)ethyl)-2,5-diethylpiperazin-1-yl)-1-methyl-2-oxo-1,2-dihydropyrido[3,2-d]pyrimidine-6-carbonitrile]
– | – | 22 | 13 | CCC(c1ccc(C2CC2)cc1)N1C[C@H](C)N(c2nc(=O)n(C)c3ccc(C#N)nc23)C[C@H]1CC (stereo partly drawn) [Example 300, 4-((2S,5R)-4-(1-(4-cyclopropylphenyl)propyl)-5-ethyl-2-methylpiperazin-1-yl)-1-methyl-2-oxo-1,2-dihydropyrido[3,2-d]pyrimidine-6-carbonitrile]
1050 | 4010 | – | – | CCC(C1CC(F)(F)C1)N1C[C@H](C)N(c2nc(=O)n(C)c3ccc(C#N)nc23)C[C@H]1C (stereo partly drawn) [Example 457, 4-((2S,5R)-4-(1-(3,3-difluorocyclobutyl)propyl)-2,5-dimethylpiperazin-1-yl)-1-methyl-2-oxo-1,2-dihydropyrido[3,2-d]pyrimidine-6-carbonitrile]
770 | 140 | – | – | CCOc1ccc(C(CC)N2C[C@H](C)N(c3nc(=O)n(C)c4ccc(C#N)nc34)C[C@H]2CC)cc1 (stereo partly drawn) [Example 307, 4-((2S,5R)-4-(1-(4-ethoxyphenyl)propyl)-5-ethyl-2-methylpiperazin-1-yl)-1-methyl-2-oxo-1,2-dihydropyrido[3,2-d]pyrimidine-6-carbonitrile]
– | – | 360 | 64 | CC[C@H]1CN(C(c2ccc(F)cc2)c2cccc(C(F)F)n2)[C@H](CC)CN1c1nc(=O)n(C)c2ccc(C#N)nc12 (stereo partly drawn) [Example 258, 4-((2S,5R)-4((6-(difluoromethyl)pyridin-2-yl)(4-fluorophenyl)methyl)-2,5-diethylpiperazin-1-yl)-1-methyl-2-oxo-1,2-dihydropyrido[3,2-d]pyrimidine-6-carbonitrile]
– | – | 5070 | 1770 | CCC(c1ccc(C2CC2)cc1F)N1C[C@H](C)N(c2nc(=O)n(C)c3ccc(C#N)nc23)C[C@H]1CC (stereo partly drawn) [Example 303, 4-((2S,5R)-4-(1-(4-cyclopropyl-2-fluorophenyl)propyl)-5-ethyl-2-methylpiperazin-1-yl)-1-methyl-2-oxo-1,2-dihydropyrido[3,2-d]pyrimidine-6-carbonitrile]
31 | 87 | – | – | CC[C@@H]1CN(c2nc(=O)n(C)c3ccc(C#N)nc23)[C@@H](C)CN1C(c1ccc(F)cc1)c1cccc(C(F)F)n1 (stereo partly drawn) [Example 316, 4-((2 S,5R)-4-((6-(difluoromethyl)pyridin-2-yl)(4-fluorophenyl)methyl)-5-ethyl-2-methylpiperazin-1-yl)-1-methyl-2-oxo-1,2-dihydropyrido[3,2-d]pyrimidine-6-carbonitrile]
7550 | 5120 | – | – | CCC(C1CC1)N1C[C@H](C)N(c2nc(=O)n(C)c3ccc(C#N)nc23)C[C@H]1C (stereo partly drawn) [Example 455, 4-((2S,5R)-4-(1-cyclopropylpropyl)-2,5-dimethylpiperazin-1-yl)-1-methyl-2-oxo-1,2-dihydropyrido[3,2-d]pyrimidine-6-carbonitrile]
– | – | 18 | 78 | CC[C@H]1CN(C(C)c2ccc(C3(C)CC3)cc2)[C@H](CC)CN1c1nc(=O)n(C)c2ccc(C#N)nc12 (stereo partly drawn) [Example 218, 4-((2S,5R)-2,5-diethyl-4-(1-(4-(1-methylcyclopropyl)phenyl)ethyl)piperazin-1-yl)-1-methyl-2-oxo-1,2-dihydropyrido[3,2-d]pyrimidine-6-carbonitrile]
28800 | 14200 | – | – | CCC(C1CC1)N1C[C@H](C)N(c2nc(=O)n(C)c3ccc(C#N)nc23)C[C@H]1C (stereo partly drawn) [Example 454, 4-((2S,5R)-4-(1-cyclopropylpropyl)-2,5-dimethylpiperazin-1-yl)-1-methyl-2-oxo-1,2-dihydropyrido[3,2-d]pyrimidine-6-carbonitrile]
– | – | 62 | 290 | CC[C@H]1CN(C(C)c2ccc(C3(C#N)CC3)cc2)[C@H](CC)CN1c1nc(=O)n(C)c2ccc(C#N)nc12 (stereo partly drawn) [Example 263, 4-((2S,5R)-4-(1-(4-(1-cyanocyclopropyl)phenyl)ethyl)-2,5-diethylpiperazin-1-yl)-1-methyl-2-oxo-1,2-dihydropyrido[3,2-d]pyrimidine-6-carbonitrile]
180 | 400 | – | – | CC[C@H]1CN(C(C)c2ccc(C(F)(F)F)cc2)[C@H](CC)CN1c1nc(=O)n(C)c2ccc(OC(F)F)nc12 (stereo partly drawn) [Example 444, 4-((2S,5R)-2,5-Diethyl-4-(1-(4-(trifluoromethyl)phenyl)ethyl)piperazin-1-yl)-6-(difluoromethoxy)-1-methylpyrido[3,2-d]pyrimidin-2(1H)-one]
23900 | 29800 | – | – | CCC(C1CCC(F)(F)CC1)N1C[C@H](C)N(c2nc(=O)n(C)c3ccc(C#N)nc23)C[C@H]1C (stereo partly drawn) [Example 459, 4-((2S,5R)-4-(1-(4,4-difluorocyclohexyl)propyl)-2,5-dimethylpiperazin-1-yl)-1-methyl-2-oxo-1,2-dihydropyrido[3,2-d]pyrimidine-6-carbonitrile]
– | – | 2150 | 2850 | CC[C@H]1CN(C(C)c2ccc3oc(C4CC4)nc3c2)[C@H](CC)CN1c1nc(=O)n(C)c2ccc(C#N)nc12 (stereo partly drawn) [Example 254, 4-((2S,5R)-4-(1-(2-cyclopropylbenzo[d]oxazol-5-yl)ethyl)-2,5-diethylpiperazin-1-yl)-1-methyl-2-oxo-1,2-dihydropyrido[3,2-d]pyrimidine-6-carbonitrile]

The next lines start with the compound.

Compound | IC50 (human DGKζ; [1]) [nM] | IC50 (human DGKα; [2]) [nM] | IC50 (human DGKζ; [3]) [nM] | IC50 (human DGKα; [4]) [nM]
CCC(c1ccc(C2CC2)cc1)N1C[C@H](C)N(c2nc(=O)n(C)c3ccc(C#N)nc23)C[C@H]1C (stereo partly drawn) [Example 379, 4-((2S,5R)-4-(1-(4-cyclopropylphenyl)propyl)-2,5-dimethylpiperazin-1-yl)-1-methyl-2-oxo-1,2-dihydropyrido[3,2-d]pyrimidine-6-carbonitrile] | 3600 | 450 | – | –
CCC(c1ccc(Br)cc1)N1C[C@H](C)N(c2nc(=O)n(C)c3ccc(C#N)nc23)C[C@H]1CC (stereo partly drawn) [Example 321, 4-((2 S,5R)-4-(1-(4-bromophenyl)propyl)-5-ethyl-2-methylpiperazin-1-yl)-1-methyl-2-oxo-1,2-dihydropyrido[3,2-d]pyrimidine-6-carbonitrile] | 38 | 10 | – | –
CCC(C1CC1)N1C[C@H](C)N(c2nc(=O)n(C)c3ccc(C#N)nc23)C[C@H]1C (stereo partly drawn) [Example 453, 4-((2S,5R)-4-(1-cyclopropylpropyl)-2,5-dimethylpiperazin-1-yl)-1-methyl-2-oxo-1,2-dihydropyrido[3,2-d]pyrimidine-6-carbonitrile] | 79400 | 215000 | – | –
CCC(c1ccc(C2CC2)cc1F)N1C[C@H](C)N(c2nc(=O)n(C)c3ccc(C#N)nc23)C[C@H]1C (stereo partly drawn) [Example 381, 4-((2S,5R)-4-(1-(4-cyclopropyl-2-fluorophenyl)propyl)-2,5-dimethylpiperazin-1-yl)-1-methyl-2-oxo-1,2-dihydropyrido[3,2-d]pyrimidine-6-carbonitrile] | 3410 | 850 | – | –
CCC(c1ccc(C2CC2)cc1)N1C[C@H](CC)N(c2nc(=O)n(C)c3ccc(C#N)nc23)C[C@H]1CC (stereo partly drawn) [Example 200, 4-((2S,5R)-4-(1-(4-cyclopropylphenyl)propyl)-2,5-diethylpiperazin-1-yl)-1-methyl-2-oxo-1,2-dihydropyrido[3,2-d]pyrimidine-6-carbonitrile] | – | – | 13 | 12
CC[C@H]1CN(C(C)c2ccc(C(F)(F)F)cc2)[C@H](CC)CN1c1nc(=O)n(C)c2ccc(COC)nc12 (single isomer, unassigned) [Example 425] | 12500 | 83300 | – | –
CC[C@H]1CN(C(C)c2ccc(CN3CCCCC3)cc2)[C@H](CC)CN1c1nc(=O)n(C)c2ccc(C#N)nc12 (stereo partly drawn) [Example 282, 4-((2S,5R)-2,5-diethyl-4-(1-(4-(piperidin-1-ylmethyl)phenyl)ethyl)piperazin-1-yl)-1-methyl-2-oxo-1,2-dihydropyrido[3,2-d]pyrimidine-6-carbonitrile] | – | – | 1160 | 150
CCOC(=O)[C@H]1C[C@@H]1Oc1ccc(C(C)N2C[C@H](CC)N(c3nc(=O)n(C)c4ccc(C#N)nc34)C[C@H]2CC)cc1 (stereo partly drawn) [Example 259, ethyl (1S,2S)-2-(4-(1-((2R,5S)-4-(6-cyano-1-methyl-2-oxo-1,2-dihydropyrido[3,2-d]pyrimidin-4-yl)-2,5-diethylpiperazin-1-yl)ethyl)phenoxy)cyclopropane-1-carboxylate] | – | – | 1800 | 2170
CCOc1ccc2c(n1)c(N1C[C@@H](CC)N(C(CC)c3ccc(C(F)(F)F)cc3)C[C@@H]1CC)nc(=O)n2C (stereo partly drawn) [Example 438, 4-((2S,5R)-2,5-diethyl-4-(1-(4-(trifluoromethyl)phenyl)propyl)piperazin-1-yl)-6-ethoxy-1-methylpyrido[3,2-d]pyrimidin-2(1H)-one] | 250000 | 175000 | – | –
CC[C@H]1CN(C(C)c2ccc3oc(C4CC4)nc3c2)[C@H](CC)CN1c1nc(=O)n(C)c2ccc(C#N)nc12 (stereo partly drawn) [Example 253, 4-((2S,5R)-4-(1-(2-cyclopropylbenzo[d]oxazol-5-yl)ethyl)-2,5-diethylpiperazin-1-yl)-1-methyl-2-oxo-1,2-dihydropyrido[3,2-d]pyrimidine-6-carbonitrile] | – | – | 97 | 3800
